Results on three compounds are retold here after patent publication US7517658B2, “Methods for preparing compositions using a SNORF33 receptor” (H. Lundbeck A/S, priority 1999, dated 2009).

One test has as its target rSNORF33 (Rattus norvegicus, UniProt Q923Y9). Kind of test: Intracellular cAMP release in rSNORF33-transfected COS-7 cells. The format is cell-based. Details: expressed in transfected cells; host or cells: COS-7 (transient). Conditions: transiently transfected COS-7 cells; 3–8 experiments; read-out: Mean EC50 ± S.E.M., stimulation of rSNORF33 measured by intracellular cAMP release. As for the experimental part:
The receptor-mediated stimulation or inhibition of cyclic AMP (cAMP) formation may be assayed in cells expressing the mammalian receptors. Cells are plated in 96-well plates or other vessels and preincubated in a buffer such as HEPES buffered saline (NaCl (150 mM), CaCl2 (1 mM), KCl (5 mM), glucose (10 mM)) supplemented with a phosphodiesterase inhibitor such as 5 mM theophylline, with or without protease inhibitor cocktail (For example, a typical inhibitor cocktail contains 2 μg/ml aprotinin, […] leupeptin, and 10 μg/ml phosphoramidon.) for 20 min at 37° C., in 5% CO2. Test compounds are added with or without […] forskolin and incubated for an additional 10 min at 37° C. The medium is then aspirated and the reaction stopped by the addition of 100 mM HCl or other methods. The plates are stored at 4° C. for 15 min, and the cAMP content in the stopping solution is measured by radioimmunoassay. Radioactivity may be quantified using a gamma counter equipped with data reduction software. Specific modifications may be performed to optimize the assay for the receptor or to alter the detection method of cAMP.
COS-7 cells were transiently transfected with rSNORF33 gene using the calcium phosphate method and plated in 96-well plates. 48 hours after transfection, cells were washed twice with Dulbecco's phosphate buffered saline (PBS) supplemented with 10 mM HEPES, 10 mM glucose, 5 mM theophylline and 10 μM pargyline and were incubated in the same buffer for 20 min at 37° C., in […] 5% CO2. Test compounds were added and cells were incubated for an additional 10 min at 37° C. The medium was then aspirated and the reaction stopped by the addition of 100 mM HCl. The plates were stored at −20° C. for 2-5 days. For cAMP measurement, plates were thawed and the cAMP content in each well was measured by radioimmunoassay cAMP Scintillation Proximity Assay (Amersham Pharmacia Biotech). Radioactivity was quantified using microbeta Trilux counter (Wallac).

The next test addresses T1, hSNORF33 (Homo sapiens, UniProt Q96RJ0).
T1 sequence (Q96RJ0 1-339): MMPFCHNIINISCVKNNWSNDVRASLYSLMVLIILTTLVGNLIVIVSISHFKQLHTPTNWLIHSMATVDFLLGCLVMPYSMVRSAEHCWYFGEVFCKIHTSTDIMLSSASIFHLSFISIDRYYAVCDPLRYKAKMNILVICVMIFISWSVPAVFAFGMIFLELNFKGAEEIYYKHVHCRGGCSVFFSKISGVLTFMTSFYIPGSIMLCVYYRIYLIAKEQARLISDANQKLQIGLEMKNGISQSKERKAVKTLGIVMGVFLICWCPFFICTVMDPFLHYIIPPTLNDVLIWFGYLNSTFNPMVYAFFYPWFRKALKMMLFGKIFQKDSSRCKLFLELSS
Kind of test: [3H]-TYR binding (saturation and displacement) to human SNORF33 COS-7 membranes. Also on record: expressed in transfected cells; host or cells: COS-7 (membranes). The following applies: human SNORF33 in transfected COS-7 membranes; read-out: Mean Ki ± S.D.M., displacement of [3H]-tyramine. The procedure: [^3H]-TYR and [^3H]-T binding assays were performed essentially as described by Mallard et al. (1992), with minor modifications. Radioligand binding assays were performed by diluting membranes prepared from cells expressing the receptor (with co-expression of the rat G-protein alpha S subunit for human SNORF33) in 25 mM Gly-Gly buffer (Sigma, pH=7.4 @ 0° C.) containing 5 mM ascorbate and 10 μM pargyline (final protein concentration in assay=100-300 μg/ml). Membranes were then incubated with either [^3H]-TYR (American Radiochemicals, specific activity 60 mCi/μmole) or [^3H]-T (Amersham, specific activity 98 mCi/μmole) in the presence or absence of competing ligands on ice for 30 min in a total volume of 250 μl in 96 well microtiter plates. The bound ligand was separated from free by filtration through GF/B filters presoaked in 0.5% polyethyleneimine (PEI), using Tomtec (Wallac) or Brandel Cell Harvester vacuum filtration device. After addition of Ready Safe (Beckman) scintillation fluid, bound radioactivity was quantitated using a Trilux (Wallac) scintillation counter (approximately 20% counting efficiency of bound counts). Data was fit to non-linear curves using GraphPad Prism.
In this manner, agonist or antagonist compounds that bind to the receptor may be identified as they inhibit the binding of the labeled ligand to the membrane protein of cells expressing the said receptor. Non-specific binding was defined as the amount of radioactivity remaining after incubation of membrane protein in the presence of 10 μM of the unlabeled amine corresponding to the radioligand used. In equilibrium saturation binding assays, membrane preparations or intact cells transfected with the receptor are incubated in the presence of increasing concentrations of the labeled compound to determine the binding affinity of the labeled ligand. The binding affinities of unlabeled compounds may be determined in equilibrium competition binding assays, using a fixed concentration of labeled compound in the presence of varying concentrations of the displacing ligands.
(In a radioligand displacement assay an active substance lowers the binding of a labelled ligand.)

Sequence of rSNORF33 (Q923Y9 whole entry): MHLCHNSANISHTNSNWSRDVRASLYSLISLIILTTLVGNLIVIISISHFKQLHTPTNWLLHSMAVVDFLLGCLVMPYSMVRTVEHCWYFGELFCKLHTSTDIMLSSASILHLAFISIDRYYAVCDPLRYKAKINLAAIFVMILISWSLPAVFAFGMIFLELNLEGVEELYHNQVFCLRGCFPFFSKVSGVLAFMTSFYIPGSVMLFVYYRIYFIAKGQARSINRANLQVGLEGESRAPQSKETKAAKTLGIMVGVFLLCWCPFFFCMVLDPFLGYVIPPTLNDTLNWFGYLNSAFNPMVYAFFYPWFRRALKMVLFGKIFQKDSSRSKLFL

As to `NCC(O)c1ccc(O)cc1` (stereo not drawn) [Octopamine (OCT), Octopamine], the EC50 (in general, the concentration giving half of the maximal effect) on rSNORF33 amounted to 135 ± 54 nM. The inhibitory constant (Ki) (in general, a measure of affinity in units of concentration, obtained from inhibition or displacement) on hSNORF33 was 417 ± 285 nM.
The matching figures for `NCCc1c[nH]c2ccccc12` [Tryptamine (T), Tryptamine]: 17 ± 4 nM and 1130 ± 372 nM.
For `NCCc1ccc(O)cc1` [Tyramine (TYR), Tyramine], in that order: 9 ± 6 nM and 51 ± 11 nM.
